The IC50 is the concentration that inhibits the measured activity by half.

Results on six compounds are retold here after patent EP0928793B1, “Thiazole derivatives” (F. HOFFMANN-LA ROCHE AG, priority 1998, dated 1999).

The assay deals with T1, vitronectin receptor αvβ3 (Homo sapiens, UniProt P05106+P06756).
T1 construct: Human placenta is stored at -80°C immediately after its excision; In order to extract the receptor; from tissue; host or cells: human placenta
Put plainly: Inhibition of fibrinogen binding to immobilised vitronectin receptor αvβ3 (ELISA). Conditions: fibrinogen 1.5 µg/ml, receptor from human placenta coated on microtitre plates, overnight at room temperature, ELISA detection; read-out: VNR IC50. The procedure:
The inhibition of the binding of adhesive proteins such as e.g. fibrinogen to vitronectin receptors (such as e.g. αvβ3, αvβ5, αvβ6, αvβ8, etc. or to the fibrinogen receptor (αIIbβ3) by compounds of formula I can be determined as described by L. Alig et al. (J.Med.Chem. 1992, 35, 4393-4407).
In detail thereto, the wells of microtitre plates (Nunc-Immunoplate MaxiSorp) were coated overnight at 4°C with the vitronectin receptor αvβ3 (from human placenta, 100 µl/well) in a buffer system with 150 mmol/l NaCl, 1 mmol/CaCl2, 1 mmol/l MgCl2, 0.0005% Triton X-100 and 20 mmol/l Tris HCl, pH 7.4. The non-specific binding sites were blocked by incubation with 3.5% bovine serum albumin (BSA from Fluka) at 20°C for at least 1 h. Before the beginning of the test the plates were washed in each case once with 150 mmol/l NaCl, 1 mmol/l CaCl2, 1 mmol/l MgCl2 and 20 mmol/l Tris HCI, pH 7.4 (buffer A). The thus-coated plates can be stored for at least 2 months in the presence of 0.05% NaN3 (in buffer A) at 4°C in a humidity chamber without loss of binding activity. Fibrinogen (IMCO, free from fibronectin) was diluted to 1.5 µg/ml in buffer A in the presence of 1% BSA. The wells coated with the receptor were incubated with fibrinogen (100 µl/well) overnight at room temperature in the absence of or in the presence of increasing concentrations of RGDS (as the reference substance) or the compounds to be measured. Non-bound fibrinogen was removed by three-fold washing with buffer A and bound fibrinogen was detected by an ELISA procedure. Antibodies of rabbits directed against human fibrinogen (Dakopatts, Denmark), diluted in buffer A in the presence of 0.1% BSA, were added at room temperature for 1h., followed by incubation with biotinylated antibodies directed against rabbit immunoglobulin (Amersham) for 30 min. Non-bound antibodies were removed by three-fold washing with buffer A. Thereafter, the pre-formed streptavidin-biotinylated peroxidase complex (Amersham) was added for 30 min. Three-fold washing with buffer A was again carried out. After addition of the peroxidase substrate ABTS (2,2'-azino-bis(3-ethylbenzothiazoline-6-sulphonic acid), Boehringer Mannheim) the enzyme activity was measured with a multichannel photometer (UVmax, Molecular Devices). The difference between total binding activity (in the absence of a test substance) and non-specific binding activity (in the presence of 100 µM RGDS) is taken as the specific binding activity. The concentration of a test substance which is required to inhibit the specific binding activity by 50% was defined as the IC50.
The isolation of the receptor avb3 used in the test can be carried out as follows: Human placenta is stored at -80°C immediately after its excision. In order to extract the receptor, each placenta is superficially thawed and cut into narrow strips with a scalpel. The pieces are washed twice with a buffer of 150 mmol/l NaCl, 1 mmol/l CaCl2, 1 mmol/l MgCl2 and 20 mmol/l Tris HCl (pH 7.4). The proteins are extracted at room temperature for one hour with a buffer solution from 1% Triton X-100, 150 mmol/l NaCl, 1 mmol/l CaCl2, 1 mmol/l MgCl2, 20 mmol/l Tris HCl, 0.02% NaN3, 0.5 mmol/l phenylmethanesulphonyl fluoride, 1 mmol/l leupeptin and 2 mmol/l N-ethylmaleimide (pH 7.4) and filtered through sterile gauze. The filtrate is centrifuged at 30000 g for 30 min. at 4°C. The glycoproteins are firstly separated with the aid of a concanavalin A-Sepharose 4B column. The proteins bound to the column are eluted and then added to a Aeg-RGDS column. After repeated washing the bound vitronectin receptor is eluted by 3 mmol/l RGDS in a buffer of 0.1% Triton X-100, 150 mmol/l NaCl, 20 mmol/l Tris HCl, 1 mmol/l CaCl2, 1 mmol/l MgCl2, 0.05% NaN3 (pH 7.0).

T1 sequence (P06756 31-889 limits assumed): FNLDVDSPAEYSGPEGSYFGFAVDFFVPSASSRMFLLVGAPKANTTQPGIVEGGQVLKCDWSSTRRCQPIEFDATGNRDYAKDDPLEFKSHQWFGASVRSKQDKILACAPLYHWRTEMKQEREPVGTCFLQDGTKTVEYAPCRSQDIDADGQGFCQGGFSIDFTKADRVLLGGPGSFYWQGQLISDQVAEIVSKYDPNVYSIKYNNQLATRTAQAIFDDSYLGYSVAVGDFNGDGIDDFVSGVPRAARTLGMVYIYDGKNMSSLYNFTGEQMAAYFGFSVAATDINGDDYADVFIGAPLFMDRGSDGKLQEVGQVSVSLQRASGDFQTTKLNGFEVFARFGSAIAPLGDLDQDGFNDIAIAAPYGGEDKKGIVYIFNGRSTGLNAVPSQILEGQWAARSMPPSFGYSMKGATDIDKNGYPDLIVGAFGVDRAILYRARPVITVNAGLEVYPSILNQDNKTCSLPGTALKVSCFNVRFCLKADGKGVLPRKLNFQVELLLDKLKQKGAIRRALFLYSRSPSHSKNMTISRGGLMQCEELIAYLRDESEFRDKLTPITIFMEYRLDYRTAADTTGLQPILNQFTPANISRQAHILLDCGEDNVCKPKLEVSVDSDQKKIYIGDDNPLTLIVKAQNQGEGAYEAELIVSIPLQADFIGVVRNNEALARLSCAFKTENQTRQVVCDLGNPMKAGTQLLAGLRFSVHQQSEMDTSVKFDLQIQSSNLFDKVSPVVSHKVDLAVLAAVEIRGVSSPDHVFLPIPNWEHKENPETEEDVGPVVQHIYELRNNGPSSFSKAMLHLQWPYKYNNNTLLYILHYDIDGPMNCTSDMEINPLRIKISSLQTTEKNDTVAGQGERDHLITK
T1 sequence (P06756 891-1048 partner limits assumed): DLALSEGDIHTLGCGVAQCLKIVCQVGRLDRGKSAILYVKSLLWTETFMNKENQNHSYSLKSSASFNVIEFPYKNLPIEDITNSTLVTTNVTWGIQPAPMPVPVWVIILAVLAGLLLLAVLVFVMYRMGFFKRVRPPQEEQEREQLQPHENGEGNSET
T1 sequence (P05106 27-788): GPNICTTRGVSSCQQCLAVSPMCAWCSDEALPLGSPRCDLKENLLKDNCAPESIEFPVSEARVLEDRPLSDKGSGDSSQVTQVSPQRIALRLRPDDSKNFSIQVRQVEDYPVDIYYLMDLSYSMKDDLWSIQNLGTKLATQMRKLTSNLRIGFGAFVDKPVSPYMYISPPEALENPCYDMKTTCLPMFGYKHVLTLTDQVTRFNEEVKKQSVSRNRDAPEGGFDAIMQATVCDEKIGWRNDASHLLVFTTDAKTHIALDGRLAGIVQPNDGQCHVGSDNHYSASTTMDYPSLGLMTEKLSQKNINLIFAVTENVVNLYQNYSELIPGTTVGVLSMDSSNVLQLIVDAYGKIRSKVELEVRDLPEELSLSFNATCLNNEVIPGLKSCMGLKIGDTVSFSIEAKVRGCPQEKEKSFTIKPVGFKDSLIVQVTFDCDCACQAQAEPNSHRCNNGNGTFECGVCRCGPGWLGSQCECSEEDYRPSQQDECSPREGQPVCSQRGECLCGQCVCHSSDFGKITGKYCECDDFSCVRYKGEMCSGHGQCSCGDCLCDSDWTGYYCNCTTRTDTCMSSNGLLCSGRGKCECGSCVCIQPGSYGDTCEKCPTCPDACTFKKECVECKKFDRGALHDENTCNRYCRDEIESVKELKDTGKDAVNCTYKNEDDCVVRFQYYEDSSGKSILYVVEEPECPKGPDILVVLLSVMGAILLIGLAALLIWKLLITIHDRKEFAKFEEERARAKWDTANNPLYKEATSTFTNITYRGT

On to `NC(N)=Nc1nc(C2CCCC2)c(C(=O)N2CCCC(COCC(=O)O)C2)s1` (racemic) [rac [1-(4-cyclopentyl-2-guanidino-thiazol-5-ylcarbonyl)-piperidin-3-ylmethoxy]-acetic acid], for which the IC50 was 90 nM. As for `Cc1nc(NC(=N)N)sc1C(=O)N1CCC[C@@H](COCC(=O)O)C1` [(R)-[1-(2-guanidino-4-methyl-thiazole-5-carbonyl)-piperidin-3-ylmethoxy]-acetic acid], the IC50 stood at 50 nM. Consider `CCCc1nc(N=C(N)N)sc1C(=O)N1CCCC(COCC(=O)O)C1` (racemic) [rac [1-(2-guanidino-4-propyl-thiazole-5-carbonyl)-piperidin-3-ylmethoxy]-acetic acid], for which the IC50 is 18 nM. Take `Cc1nc(N=C(N)N)sc1C(=O)N1CCCC(COCC(=O)O)C1` (racemic) [rac [1-(2-guanidino-4-methyl-thiazole-5-carbonyl)-piperidin-3-ylmethoxy]-acetic acid]: the IC50 was 39 nM.

On to `NC(N)=Nc1nc(-c2ccccc2)c(C(=O)N2CCCC(COCC(=O)O)C2)s1` (racemic) [rac [1-(2-guanidino-4-phenyl-thiazole-5-carbonyl)-piperidin-3-ylmethoxy]-acetic acid], for which the IC50 worked out at 70 nM. Regarding `CC(C)(C)c1nc(N=C(N)N)sc1C(=O)N1CCCC(COCC(=O)O)C1` (racemic) [rac [1-(4-tert-butyl-2-guanidino-thiazole-5-carbonyl)-piperidin-3-ylmethoxy]-acetic acid], the IC50 was determined as 22 nM.
